Series [1] in a line: Stability tests of FPD at 40° C. and 75% Rh (tests S1-S5, HBS1-HBS3), out of […]. The format is physicochemical. As to conditions: conclusion of the tests.
The conditions of series [2]: bronchodilator; cited from earlier work.

Regarding `C[N+]1(C)[C@@H]2C[C@@H](OC(=O)C(O)(c3cccs3)c3cccs3)C[C@H]1[C@@H]1O[C@@H]12` [tiotropium], the Sensitivity to moisture result in series [1] was “extremely sensitive to moisture”. Regarding `C[N+]1(C)[C@@H]2C[C@@H](OC(=O)C(O)(c3cccs3)c3cccs3)C[C@H]1[C@@H]1O[C@@H]12` [tiotropium bromide], the Duration of action result in series [2] is listed as “up to 24 hours”.

The values are drawn from US20090192185A1, “MEDICAL PRODUCT” (Boehringer Ingelheim International GmbH, priority 2003, published 2009).
